Measurements as given in US20260306491A1, “EGFR INHIBITOR FOR TREATING CANCERS COMPRISING ATYPICAL EGFR MUTATIONS” (ORIC Pharmaceuticals, Inc., priority 2023, published 2026).

Test: Clinical study in NSCLC subjects: treatment-related adverse events (Example 10)
Assay type: in vivo, human
Details: oral hemifumarate
Description: A clinical study was conducted using Compound I in human subjects having non-small cell lung cancer (NSCLC) comprising EGFR exon 20 insertion mutations, HER2 exon 20 insertion mutations, or HER2 amplification or overexpression. A total of 50 human subjects having non-small cell lung cancer comprising one or more EGFR exon 20 insertion mutations, HER2 exon 20 insertion mutations, or HER2 amplification or overexpression were enrolled in the study as of Jul. 31, 2023 with data collected as of Sep. 26, 2023. The subjects were enrolled into one of ten dosing cohorts that were each orally administered Compound I in the form of a hemifumarate salt as shown in Table 13 (QD=once per day; BID=twice per day).
The TRAEs that occurred in equal to or greater than 10% of subjects in the study are set forth in Tables 15 to 18 (TDD=total daily dose; n=number; N/A=not applicable; the term rash includes the following terms: acne, dermatitis, dermatitis acneiform, eczema, hand dermatitis, and rash).

Compound: C=CC(=O)Nc1cc(Nc2cc(N3OCC[C@@H]3c3cc(F)cc(F)c3)ncn2)c(OC)cc1N1CCC(N2CCN(C3CC3)CC2)CC1 [Compound I, N-[2-[4-(4-cyclopropyl-1-piperazinyl)-1-piperidinyl]-5-[[6-[(3R)-3-(3,5-difluorophenyl)-2-isoxazolidinyl]-4-pyrimidinyl]amino]-4-methoxyphenyl]-2-propenamide]
- Paronychia, Grade 2, number of subjects (<45 mg TDD (n = 18)): 2 n
- Pruritis, Grade 1 (<45 mg TDD (n = 18)): (11) %
- Pruritis, Grade 1, number of subjects (<45 mg TDD (n = 18)): 2 n
- Rash, Grade 1 (<45 mg TDD (n = 18)): (33) %
- Rash, Grade 1, number of subjects (<45 mg TDD (n = 18)): 6 n
- Rash, Grade 2 (<45 mg TDD (n = 18)): (22) %
- Rash, Grade 2, number of subjects (<45 mg TDD (n = 18)): 4 n
- Stomatitis, Grade 1 (<45 mg TDD (n = 18)): (22) %
- Stomatitis, Grade 1, number of subjects (<45 mg TDD (n = 18)): 4 n
- Stomatitis, Grade 2 (<45 mg TDD (n = 18)): (11) %
- Stomatitis, Grade 2, number of subjects (<45 mg TDD (n = 18)): 2 n
- Vomiting, Grade 1 (<45 mg TDD (n = 18)): (11) %
- Vomiting, Grade 1, number of subjects (<45 mg TDD (n = 18)): 2 n
- Decreased appetite, All Grades (all doses): (14) %
- Decreased appetite, All Grades, number of subjects (all doses): 7 n
- Diarrhea, All Grades (all doses): (40) %
- Diarrhea, All Grades, number of subjects (all doses): 20 n
- Dose discontinuations (all doses): (4) %
- Dose discontinuations, number (all doses): 2 n
- Dose reductions (all doses): (16) %
- Dose reductions, number (all doses): 8 n
- Nausea, All Grades (all doses): (16) %
- Nausea, All Grades, number of subjects (all doses): 8 n
- Paronychia, All Grades (all doses): (28) %
- Paronychia, All Grades, number of subjects (all doses): 14 n
- Pruritis, All Grades (all doses): (22) %
- Pruritis, All Grades, number of subjects (all doses): 11 n
- Rash, All Grades (all doses): (54) %
- Rash, All Grades, number of subjects (all doses): 27 n
- Stomatitis, All Grades (all doses): (30) %
- Stomatitis, All Grades, number of subjects (all doses): 15 n
- Vomiting, All Grades (all doses): (14) %
- Vomiting, All Grades, number of subjects (all doses): 7 n
- Treatment-related adverse events (TRAEs), grade (each dose level): Grade 1 and 2 treatment-related adverse events (TRAEs) at each dose level
- Diarrhea, Grade 1 (≥75 mg TDD (n = 9)): 22%
- Diarrhea, Grade 1, number of subjects (≥75 mg TDD (n = 9)): 2 n
- Diarrhea, Grade 2 (≥75 mg TDD (n = 9)): 22%
- Diarrhea, Grade 2, number of subjects (≥75 mg TDD (n = 9)): 2 n
- Diarrhea, Grade 3 (≥75 mg TDD (n = 9)): 11%
- Diarrhea, Grade 3, number of subjects (≥75 mg TDD (n = 9)): 1 n
- Dose reductions (≥75 mg TDD (n = 9)): 33%
- Dose reductions, number (≥75 mg TDD (n = 9)): 3 n
- Nausea, Grade 1 (≥75 mg TDD (n = 9)): 11%
- Nausea, Grade 1, number of subjects (≥75 mg TDD (n = 9)): 1 n
- Nausea, Grade 2 (≥75 mg TDD (n = 9)): 11%
- Nausea, Grade 2, number of subjects (≥75 mg TDD (n = 9)): 1 n
- Nausea, Grade 3 (≥75 mg TDD (n = 9)): 11%
- Nausea, Grade 3, number of subjects (≥75 mg TDD (n = 9)): 1 n
- Paronychia, Grade 1 (≥75 mg TDD (n = 9)): 22%
- Paronychia, Grade 1, number of subjects (≥75 mg TDD (n = 9)): 2 n
- Paronychia, Grade 2 (≥75 mg TDD (n = 9)): 11%
- Paronychia, Grade 2, number of subjects (≥75 mg TDD (n = 9)): 1 n
- Pruritis, Grade 1 (≥75 mg TDD (n = 9)): 11%
- Pruritis, Grade 1, number of subjects (≥75 mg TDD (n = 9)): 1 n
- Pruritis, Grade 2 (≥75 mg TDD (n = 9)): 11%
- Pruritis, Grade 2, number of subjects (≥75 mg TDD (n = 9)): 1 n
- Rash, Grade 1 (≥75 mg TDD (n = 9)): 44%
- Rash, Grade 1, number of subjects (≥75 mg TDD (n = 9)): 4 n
- Rash, Grade 2 (≥75 mg TDD (n = 9)): 11%
- Rash, Grade 2, number of subjects (≥75 mg TDD (n = 9)): 1 n
- Stomatitis, Grade 1 (≥75 mg TDD (n = 9)): 22%
- Stomatitis, Grade 1, number of subjects (≥75 mg TDD (n = 9)): 2 n
- Stomatitis, Grade 2 (≥75 mg TDD (n = 9)): 22%
- Stomatitis, Grade 2, number of subjects (≥75 mg TDD (n = 9)): 2 n
- Vomiting, Grade 1 (≥75 mg TDD (n = 9)): 11%
- Vomiting, Grade 1, number of subjects (≥75 mg TDD (n = 9)): 1 n
- Vomiting, Grade 2 (≥75 mg TDD (n = 9)): 11%
- Vomiting, Grade 2, number of subjects (≥75 mg TDD (n = 9)): 1 n
- Vomiting, Grade 3 (≥75 mg TDD (n = 9)): 11%
- Vomiting, Grade 3, number of subjects (≥75 mg TDD (n = 9)): 1 n
